Experimental findings from patent publication US12252524B2, “GIP/GLP1 co-agonist compounds” (Eli Lilly and Company, priority 2018, dated 2025) are described below.

Numbered stars: 1 amine (or outer) side, 2 acyl side, 3 side chain; on linkers, the order of the positions; unused ones are H or OH. Square brackets hold non-standard residues; d marks the D form. Side chains are listed from the residue outwards. Peptide text beside a SMILES is read from it. * marks the point of attachment. C20 diacid = O=C(O)CCCCCCCCCCCCCCCCCCC(=O)*; γGlu = O=C(O)[C@H](CCC(=O)[*:2])N[*:1]; αMeY = C[C@](N)(Cc1ccc(O)cc1)C(=O)O; αMeL = CC(C)C[C@](C)(N)C(=O)O; Orn = NCCC[C@H](N)C(=O)O; AEEA = NCCOCCOCC(=O)O; Aib = CC(C)(N)C(=O)O

Assay [1] has as its target T1, human GLP-1R (Homo sapiens, UniProt P43220). Kind of assay: GLP-1R HEK293 cell membrane [35S]GTPγS binding assay. In kind it is biochemical. Also on record: expressed in transfected cells; host or cells: HEK293 cells expressing human GLP-1R; membranes. Conditions: HEK293 cell membranes expressing human GLP-1R, [35S]GTPγS binding; read-out: hGLP1R GTPgS Rel EC50 nM (SEM, n). The gist of the method:
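Membranes from HEK293 cells expressing the receptor incubated with peptide and […] [35S]GTPγS in HEPES pH 7.4 buffer with NaCl, MgCl2, saponin and BSA, 30 min at room temperature. Gαs-bound label captured by anti-Gαs antibody/SPA beads and counted; EC50 from four-parameter logistic fit.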

Assay [2] has as its target human GLP-1 receptor (GLP-1R) (Homo sapiens, UniProt P43220). The assay can be described thus: cAMP pharmacological functional assay in presence of casein, hGLP-1R. It is filed as cell-based. To be noted: HEK293 cells expressing hGLP-1R, 0.1% Casein, geometric mean; read-out: hGLP1R cAMP Rel EC50 nM (SEM, n).
Assay [3] concerns the target T1, human GLP-1R. The assay can be described thus: GLP-1R CHO cell β-arrestin recruitment assay. It is filed as cell-based. On the set-up: host or cells: CHO-K1 PathHunter cells, assay-ready frozen. Conditions: for EC50: CHO-K1 cells; for hGLP1R B-Arrestin2 % Top: normalized to GLP-1 maximum control. Summed up:
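PathHunter CHO-K1 cells with ProLink-tagged human GLP-1R and enzyme-acceptor-tagged β-arrestin-2 treated with serially diluted peptides in assay buffer containing 0.1% hydrolyzed casein, 90 min at 37 °C.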

A further assay deals with T2, human Gcg receptor (Homo sapiens, UniProt P47871).
T2 construct: expressed in transfected cells; crude membranes
T2 sequence (P47871 26-477): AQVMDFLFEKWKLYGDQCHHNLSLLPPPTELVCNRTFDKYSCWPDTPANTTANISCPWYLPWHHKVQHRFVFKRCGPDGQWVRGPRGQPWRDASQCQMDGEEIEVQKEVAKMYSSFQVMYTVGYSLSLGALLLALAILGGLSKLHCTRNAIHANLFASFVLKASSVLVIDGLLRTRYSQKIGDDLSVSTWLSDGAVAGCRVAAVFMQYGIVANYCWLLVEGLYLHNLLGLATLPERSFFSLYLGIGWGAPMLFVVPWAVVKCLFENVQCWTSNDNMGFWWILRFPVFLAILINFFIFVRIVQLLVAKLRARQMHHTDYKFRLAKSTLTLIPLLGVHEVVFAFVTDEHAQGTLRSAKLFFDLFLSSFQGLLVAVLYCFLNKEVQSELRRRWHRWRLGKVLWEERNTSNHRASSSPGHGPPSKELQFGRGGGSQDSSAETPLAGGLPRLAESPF
The assay can be described thus: [125I]-Glucagon binding (SPA), human Gcg receptor. To be noted: read-out: hGLcgR Ki, nM (SEM, n). Summed up:
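Cell pellets were lysed in hypotonic Tris buffer, pH 7.5, homogenized, and spun at low then high speed to give crude membranes. Ki was derived from the fitted IC50.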

Another assay addresses T3, human GIP receptor (Homo sapiens, UniProt P48546).
T3 construct: expressed in transfected cells; crude membranes
T3 sequence (P48546 22-466): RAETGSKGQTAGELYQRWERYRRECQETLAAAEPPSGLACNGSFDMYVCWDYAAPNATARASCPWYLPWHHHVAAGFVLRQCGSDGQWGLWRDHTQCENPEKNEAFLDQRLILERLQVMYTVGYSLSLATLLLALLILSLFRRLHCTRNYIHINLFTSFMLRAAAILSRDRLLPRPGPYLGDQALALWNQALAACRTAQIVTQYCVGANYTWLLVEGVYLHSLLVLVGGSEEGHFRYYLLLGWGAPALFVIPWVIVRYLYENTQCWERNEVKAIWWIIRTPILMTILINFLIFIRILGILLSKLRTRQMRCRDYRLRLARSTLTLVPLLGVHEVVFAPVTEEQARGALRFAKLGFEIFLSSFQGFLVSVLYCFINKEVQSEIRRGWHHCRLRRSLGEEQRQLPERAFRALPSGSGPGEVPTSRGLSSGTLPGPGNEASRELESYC
The assay can be described thus: [125I]-GIP binding (SPA), human GIP receptor. Conditions: read-out: hGIPR Ki, nM (SEM, n).

For assay [4], the target named is T4, gastric inhibitory peptide receptor (GIPR) (Homo sapiens, UniProt P48546).
T4 sequence (P48546 22-466): T3 sequence (P48546 22-466)
The assay can be described thus: cAMP pharmacological functional assay in presence of casein, hGIPR. In kind it is cell-based. Conditions: HEK293 cells expressing hGIPR, 0.1% Casein, geometric mean; read-out: hGIPR cAMP Rel EC50 nM (SEM, n).

Where [5] appears, read: 0.1% w/v hydrolyzed Casein, read-out: hGLP1R B-Arrestin2 Rel EC50.
[6] abbreviates: PathHunter β-arrestin-2 recruitment, 0.1% casein, read-out: hGLP1R B-Arrestin2 Rel EC50 uM (SEM, n).

T1 sequence (P43220 24-463): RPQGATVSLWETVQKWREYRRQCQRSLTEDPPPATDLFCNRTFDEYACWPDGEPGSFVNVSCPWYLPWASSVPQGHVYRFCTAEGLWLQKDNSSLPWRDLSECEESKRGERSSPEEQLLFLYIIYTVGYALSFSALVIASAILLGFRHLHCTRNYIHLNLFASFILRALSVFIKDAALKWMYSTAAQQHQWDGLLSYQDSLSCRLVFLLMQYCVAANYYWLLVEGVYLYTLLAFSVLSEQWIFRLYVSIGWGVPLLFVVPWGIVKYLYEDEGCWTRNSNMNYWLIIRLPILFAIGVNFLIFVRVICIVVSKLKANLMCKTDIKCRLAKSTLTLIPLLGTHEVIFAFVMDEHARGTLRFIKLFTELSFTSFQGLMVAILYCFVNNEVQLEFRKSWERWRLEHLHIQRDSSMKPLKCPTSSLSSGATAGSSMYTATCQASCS
human GLP-1 receptor (GLP-1R), sequence (P43220 24-463): as above

As for `CC[C@H](C)[C@H](NC(=O)[C@H](CC(C)C)NC(=O)[C@H](Cc1ccc(O)cc1)NC(=O)[C@H](CCC(=O)O)NC(=O)[C@@H](NC(=O)[C@H](Cc1ccccc1)NC(=O)[C@H](C)NC(=O)C(C)(C)NC(=O)[C@H](CCC(N)=O)NC(=O)[C@H](C)NC(=O)[C@H](CCCCNC(=O)COCCOCCNC(=O)COCCOCCNC(=O)CC[C@H](NC(=O)CCCCCCCCCCCCCCCCCCC(=O)O)C(=O)O)NC(=O)[C@H](CCC(=O)O)NC(=O)[C@H](CC(=O)O)NC(=O)[C@H](CC(C)C)NC(=O)[C@H](CC(C)C)NC(=O)[C@@H](NC(=O)[C@H](CO)NC(=O)[C@H](Cc1ccc(O)cc1)NC(=O)[C@H](CC(=O)O)NC(=O)[C@H](CO)NC(=O)[C@@H](NC(=O)[C@H](Cc1ccccc1)NC(=O)[C@@H](NC(=O)CNC(=O)[C@H](CCC(=O)O)NC(=O)C(C)(C)NC(=O)[C@@H](N)Cc1ccc(O)cc1)[C@@H](C)O)[C@@H](C)O)[C@@H](C)CC)[C@@H](C)CC)C(=O)N[C@@H](C)C(=O)NCC(=O)NCC(=O)N1CCC[C@H]1C(=O)N[C@@H](CO)C(=O)N[C@@H](CO)C(=O)NCC(=O)N[C@@H](C)C(=O)N1CCC[C@H]1C(=O)N1CCC[C@H]1C(=O)N1CCC[C@H]1C(=O)N[C@@H](CO)C(N)=O` [Example 330] (H-Y[Aib]EGTFTSDYSILLDEK([AEEA-AEEA-γGlu-C20 diacid])AQ[Aib]AFIEYLIAGGPSSGAPPPS-NH2), the EC50 is 1.05 nM at human GLP-1R [1]; 0.199 nM in assay [2]; more than 10.9 µM on human GLP-1R [3] (setting [5]); more than 10.9 µM at human GLP-1R [3] (setting [6]); 0.0919 nM in assay [4]. Also, the Ki is more than 1050 nM at human Gcg receptor and 0.114 nM on human GIP receptor.
Take `CC[C@H](C)[C@H](NC(=O)[C@H](CC(C)C)NC(=O)[C@H](Cc1ccc(O)cc1)NC(=O)[C@H](CCC(=O)O)NC(=O)[C@@H](NC(=O)[C@H](Cc1ccccc1)NC(=O)[C@H](CCC(=O)O)NC(=O)C(C)(C)NC(=O)[C@H](CCC(N)=O)NC(=O)[C@H](C)NC(=O)[C@H](CCCCNC(=O)COCCOCCNC(=O)CC[C@H](NC(=O)CCCCCCCCCCCCCCCCCCC(=O)O)C(=O)O)NC(=O)[C@H](CCCCN)NC(=O)[C@H](CC(=O)O)NC(=O)[C@H](CC(C)C)NC(=O)[C@](C)(CC(C)C)NC(=O)[C@@H](NC(=O)[C@H](CO)NC(=O)[C@H](Cc1ccc(O)cc1)NC(=O)[C@H](CC(=O)O)NC(=O)[C@H](CO)NC(=O)[C@@H](NC(=O)[C@H](Cc1ccccc1)NC(=O)[C@@H](NC(=O)CNC(=O)[C@H](CCC(=O)O)NC(=O)C(C)(C)NC(=O)[C@H](N)Cc1ccc(O)cc1)[C@@H](C)O)[C@@H](C)O)[C@@H](C)CC)[C@@H](C)CC)C(=O)N[C@@H](C)C(=O)NCC(=O)NCC(=O)N1CCC[C@H]1C(=O)N[C@@H](CO)C(=O)N[C@@H](CO)C(=O)NCC(=O)N[C@@H](C)C(=O)N1CCC[C@H]1C(=O)N1CCC[C@H]1C(=O)N1CCC[C@H]1C(=O)N[C@@H](CO)C(N)=O` [Example 378] (H-[dY][Aib]EGTFTSDYSI[αMeL]LDKK([AEEA-γGlu-C20 diacid])AQ[Aib]EFIEYLIAGGPSSGAPPPS-NH2): the EC50 at human GLP-1R [1] was 0.359 nM; in assay [2], 0.191 nM; on human GLP-1R [3] (setting [5]) it was more than 10.2 µM; on human GLP-1R [3] (setting [6]), more than 10.2 µM; in assay [4], 0.067 nM.
`CC[C@H](C)[C@H](NC(=O)[C@H](CC(C)C)NC(=O)[C@](C)(Cc1ccc(O)cc1)NC(=O)[C@H](CCC(=O)O)NC(=O)[C@@H](NC(=O)[C@H](Cc1ccccc1)NC(=O)[C@H](CCC(=O)O)NC(=O)C(C)(C)NC(=O)[C@H](CCC(N)=O)NC(=O)[C@H](C)NC(=O)[C@H](CCCCNC(=O)COCCOCCNC(=O)COCCOCCNC(=O)CC[C@H](NC(=O)CCCCCCCCCCCCCCCCCCC(=O)O)C(=O)O)NC(=O)[C@H](CCCCN)NC(=O)[C@H](CC(=O)O)NC(=O)[C@H](CC(C)C)NC(=O)[C@](C)(CC(C)C)NC(=O)[C@@H](NC(=O)[C@H](CO)NC(=O)[C@H](Cc1ccc(O)cc1)NC(=O)[C@H](CC(=O)O)NC(=O)[C@H](CO)NC(=O)[C@@H](NC(=O)[C@H](Cc1ccccc1)NC(=O)[C@@H](NC(=O)CNC(=O)[C@H](CCC(=O)O)NC(=O)C(C)(C)NC(=O)[C@H](N)Cc1ccc(O)cc1)[C@@H](C)O)[C@@H](C)O)[C@@H](C)CC)[C@@H](C)CC)C(=O)N[C@@H](CCC(=O)O)C(=O)NCC(=O)NCC(=O)N1CCC[C@H]1C(=O)N[C@@H](CO)C(=O)N[C@@H](CO)C(=O)NCC(=O)N[C@@H](C)C(=O)N1CCC[C@H]1C(=O)N1CCC[C@H]1C(=O)N1CCC[C@H]1C(=O)N[C@@H](CO)C(N)=O` [Example 379] (H-[dY][Aib]EGTFTSDYSI[αMeL]LDKK([AEEA-AEEA-γGlu-C20 diacid])AQ[Aib]EFIE[αMeY]LIEGGPSSGAPPPS-NH2): the EC50 worked out at 0.239 nM on human GLP-1R [1], 0.238 nM in assay [2], 0.0181 µM at human GLP-1R [3] (setting [6]) and 0.079 nM in assay [4]. In addition, on human GLP-1R [3], the “hGLP1R B-Arrestin2 % Top” value amounted to 31.9%.
As to `CC[C@H](C)[C@H](NC(=O)[C@H](CC(C)C)NC(=O)[C@](C)(Cc1ccc(O)cc1)NC(=O)[C@H](CCC(=O)O)NC(=O)[C@@H](NC(=O)[C@H](Cc1ccccc1)NC(=O)[C@H](CCC(=O)O)NC(=O)C(C)(C)NC(=O)[C@H](CCC(N)=O)NC(=O)[C@H](C)NC(=O)[C@H](CCCCNC(=O)COCCOCCNC(=O)COCCOCCNC(=O)CC[C@H](NC(=O)CCCCCCCCCCCCCCCCCCC(=O)O)C(=O)O)NC(=O)[C@H](CCCN)NC(=O)[C@H](CC(=O)O)NC(=O)[C@H](CC(C)C)NC(=O)[C@](C)(CC(C)C)NC(=O)[C@@H](NC(=O)[C@H](CO)NC(=O)[C@H](Cc1ccc(O)cc1)NC(=O)[C@H](CC(=O)O)NC(=O)[C@H](CO)NC(=O)[C@@H](NC(=O)[C@H](Cc1ccccc1)NC(=O)[C@@H](NC(=O)CNC(=O)[C@H](CCC(=O)O)NC(=O)C(C)(C)NC(=O)[C@H](N)Cc1ccc(O)cc1)[C@@H](C)O)[C@@H](C)O)[C@@H](C)CC)[C@@H](C)CC)C(=O)N[C@@H](CCC(=O)O)C(=O)NCC(=O)NCC(=O)N1CCC[C@H]1C(=O)N[C@@H](CO)C(=O)N[C@@H](CO)C(=O)NCC(=O)N[C@@H](C)C(=O)N1CCC[C@H]1C(=O)N1CCC[C@H]1C(=O)N1CCC[C@H]1C(=O)N[C@@H](CO)C(N)=O` [Example 380] (H-[dY][Aib]EGTFTSDYSI[αMeL]LD[Orn]K([AEEA-AEEA-γGlu-C20 diacid])AQ[Aib]EFIE[αMeY]LIEGGPSSGAPPPS-NH2), the EC50 on human GLP-1R [1] amounted to 0.188 nM; in assay [2], 0.236 nM; at human GLP-1R [3] (setting [6]) it was 0.0137 µM; in assay [4] it was 0.142 nM. Further, the “hGLP1R B-Arrestin2 % Top” value at human GLP-1R [3] worked out at 35%.
